Assay results reported in patent US7241771B2, “Oxepane isomer of 42-O-(2-hydroxy)ethyl-rapamycin” (Wyeth, priority 2005, dated 2007).
Values after ≈ are worked out from the molar mass of the structure shown.

How the values were obtained:
Test in all cases: Antifungal activity, microtiter MIC
Type in all cases: cell-based
Candida lusitaniae = Candida lusitaniae strain 94-3, RPMI 1640, 35° C., 24–48 hours
Experimental: (§1) Antifungal activity for the compound of this invention was established by evaluation against several strains of fungi. Briefly, the following procedure was used to evaluate such activity. A 96 well microtiter plate was filled (50 μL/well) with RPMI 1640. The compounds to be evaluated were placed in appropriate wells and serial diluted in successive wells to provide several dilutions. The concentrations ranged from […]. An adjusted inoculum of fungi (50 μL) was added to each well and plates were incubated at 35° C. for 24–48 hours.

Candida rugosa = Candida rugosa strain 94-10, RPMI 1640, 35° C., 24–48 hours
Experimental: as §1

Candida pseudotropicalis = Candida pseudotropicalis strain ATCC 28838, RPMI 1640, 35° C., 24–48 hours
Experimental: as §1

Aspergillus fumigatus = Aspergillus fumigatus strain ATCC 26933, RPMI 1640, 35° C., 24–48 hours
Experimental: as §1

Candida krussii = Candida krussii strain 94-2; RPMI 1640, 35° C., 24–48 hours
Experimental: as §1

Candida parapsilosis = conditions: RPMI 1640, 35° C., 24–48 hours; for MIC: Lodderomyces parapsilosis
Experimental: as §1

Candida tropicalis = conditions: RPMI 1640, 35° C., 24–48 hours
Experimental: as §1

Candida zeylanoided = Candida zeylanoided strain 94-15; RPMI 1640, 35° C., 24–48 hours
Experimental: as §1

Aspergillus flavusr = Aspergillus flavusr strain S506; RPMI 1640, 35° C., 24–48 hours
Experimental: as §1

Candida albicans = conditions: RPMI 1640, 35° C., 24–48 hours; for MIC: Candida albicans
Experimental: as §1

Aspergillus niger = Aspergillus niger strain ATCC 16404, RPMI 1640, 35° C., 24–48 hours
Experimental: as §1

[1] = Candida parapsilosis strain 94-8
[2] = Candida parapsilosis strain 94-9
[3] = Candida tropicalis strain 94-13
[4] = Candida tropicalis strain 94-14
[5] = Candida parapsilosis strain ATCC 90018
[6] = Candida albicans strain ATCC 90028

Row | SMILES | Antifungal Activity (MIC) (Candida parapsilosis; [1]) | Antifungal Activity (MIC) (Candida tropicalis; [3]) [µg/mL] | Antifungal Activity (MIC) (Candida lusitaniae) [µg/mL] | Antifungal Activity (MIC) (Candida rugosa) [µg/mL] | Antifungal Activity (MIC) (Candida pseudotropicalis) | Antifungal Activity (MIC) (Aspergillus fumigatus) [µg/mL] | Antifungal Activity (MIC) (Candida krussii) [µg/mL] | Antifungal Activity (MIC) (Candida parapsilosis; [2]) [µg/mL] | Antifungal Activity (MIC) (Candida parapsilosis; [5]) | Antifungal Activity (MIC) (Candida tropicalis; [4]) [µg/mL] | Antifungal Activity (MIC) (Candida zeylanoided) [µg/mL] | Antifungal Activity (MIC) (Aspergillus flavusr) [µg/mL] | Antifungal Activity (MIC) (Candida albicans; Candida albicans strain 94-1) [µg/mL] | Antifungal Activity (MIC) (Candida albicans; Candida albicans strain 1063) | Antifungal Activity (MIC) (Candida albicans; Candida albicans strain 1117) | Antifungal Activity (MIC) (Candida albicans; [6]) [µg/mL] | Antifungal Activity (MIC) (Aspergillus niger) [µg/mL] | other results
1 | COC1CC2CCC(C)C(=O)C(O)(O2)C(=O)N2CCCCC2C(=O)OC(C(C)CC2CCC(OCCO)C(OC)C2)CC(=O)C(C)/C=C(\C)C(O)C(OC)C(=O)C(C)CC(C)/C=C/C=C/C=C/1C (stereo not drawn) [Compound, 1,17-dihydroxy-11-{2-[4-(2-hydroxy-ethoxy)-3-methoxy-cyclohexyl]-1methyl-ethyl}-18,29-dimethoxy-14,16,20,22,28,34-hexamethyl-10,36-dioxa-3-aza-tricyclo[29.4.1.0˜3,8]hexatriaconta-15,23,25,27-tetraen-2,9,13,19,35-pentaone] | 0.125 µg/mL | 0.125 |  |  |  |  |  |  |  |  |  |  |  |  |  |  |  | MIC (Candida lusitaniae; Clavispora lusitaniae): ≤ 0.06 µg/mL; MIC (Candida rugosa; Diutina rugosa): 0.25 µg/mL (≈ 0.261 µM); MIC (Candida pseudotropicalis; Kluyveromyces marxianus, ATCC28838): ≤ 0.06 µg/mL; MIC (Aspergillus fumigatus; ATCC26933): 32 µg/mL (≈ 33.4 µM); MIC (Candida krussii): 0.5 µg/mL (≈ 0.522 µM); MIC (Candida parapsilosis; ATCC90018, Candida parapsilosis strain ATCC 90018): 0.25 µg/mL (≈ 0.261 µM); MIC (Candida parapsilosis; [2]): 0.125 µg/mL (≈ 0.13 µM); MIC (Candida tropicalis; [4]): 0.125 µg/mL (≈ 0.13 µM); MIC (Candida zeylanoided): ≤ 0.06 µg/mL; MIC (Aspergillus flavusr): 8 µg/mL (≈ 8.35 µM); MIC (Candida albicans; ATCC90028, Candida albicans strain ATCC 90028): 0.125 µg/mL (≈ 0.13 µM); MIC (Candida albicans; Candida albicans strain 94-1): 0.25 µg/mL (≈ 0.261 µM); MIC (Candida albicans; Candida albicans strain 1063): ≤ 0.06 µg/mL; MIC (Candida albicans; Candida albicans strain 1117): 0.125 µg/mL (≈ 0.13 µM); MIC (Aspergillus niger; ATCC16404): 8 µg/mL (≈ 8.35 µM)
2 | C[C@@H]1[C@H](O)[C@@H](C)/C=C/C=C/CC/C=C/C=C/C=C/C=C/C(O[C@H]2O[C@H](C)[C@@H](O)[C@H](N)[C@@H]2O)CC2O[C@](O)(CC(O)C(O)CCC(O)CC(O)CC(O)CC(=O)O[C@H]1C)CC(O)C2C(=O)O (stereo partly drawn) [Nystatin] | 2 µg/mL | 1 | 1 | 1 | 1 µg/mL | 2 | 1 | 1 | 2 µg/mL | 2 | 1 | 2 | 2 | 1 µg/mL | 1 µg/mL | 1 | 1 | 
3 | C[C@@H]1[C@H](O)[C@@H](C)/C=C/C=C/C=C/C=C/C=C/C=C/C=C/[C@H](O[C@@H]2O[C@H](C)[C@@H](O)[C@H](N)[C@@H]2O)C[C@@H]2O[C@](O)(C[C@@H](O)C[C@@H](O)[C@H](O)CC[C@@H](O)C[C@@H](O)CC(=O)O[C@H]1C)C[C@H](O)[C@H]2C(=O)O [Amphotericin B] | ≦0.06 μg/mL | 0.125 | 0.125 | 0.25 | ≦0.06 μg/mL | 0.25 | 0.125 | 0.125 | ≦0.06 μg/mL | 0.125 | 0.25 | 0.50 | 0.125 | ≦0.06 μg/mL | ≦0.06 μg/mL | 0.125 | 0.25 | 
